Drawing on PubChem BioAssay AID651884 (Southern Research Specialized Biocontainment Screening …, 2012), this text covers IC50 for four compounds.

Structures are written as SMILES.

The assay relates to VEEV TC-83 infected cells, viral CPE inhibition. The assay is described as follows: Cell based counter screen, viral CPE inhibition, VEEV strain KU V3526 (AID 651884). (In general: Counterscreens check selectivity or assay interference.)

Usually IC50 stands for the concentration that gives 50% inhibition. `CCN1CCN(C)CC1=Nc1ccc([N+](=O)[O-])cc1C(=O)Nc1ccccc1`: the IC50 was 20 nM. The figure for `CCN1CCN(Cc2nc3ccc([N+](=O)[O-])cc3c(=O)n2-c2ccccc2F)CC1` is 325 nM; for `COc1ccc(NC(=O)c2cc([N+](=O)[O-])ccc2N=C2CN(C)CCN2C)cc1` it is 17 nM; for `CN1CCN(C)C(=Nc2ccc([N+](=O)[O-])cc2C(=O)Nc2ccccc2)C1` it is 19.4 nM.
